The test system of one assay is parental NCI-N87 cells. Briefly: Proliferation assay (CellTiter Glo), parental NCI-N87 cells. The format is cell-based, human. To be noted: 5 days of incubation, in vitro. The protocol: (§1) Per well, 1000 cells are seeded in 40 μL medium in white, sterile 384-well culture plates (TC-treated; PerkinElmer #6007680) and incubated overnight in a humidified incubator at 37° C. and 5% CO2. 0.1% DMSO-control or serial compound dilution in triplicates are added. […] After 5 days of incubation with test compounds, the cells plates are measured upon addition of CellTiter Glo Luminescent Cell Viability Reagent (Promega, #G9243) to assess cell viability. The plates are placed on a shaker for five minutes and additionally incubated for 10 minutes at room temperature to induce cell lysis and to stabilize the luminescent signal. The luminescent signal of each well is measured in an EnSpire Multilabel Plate Reader 658 (PerkinElmer). The dose response curves are fit and visualized using Boehringer Ingelheim's proprietary software MegaLab and PRISM (GraphPad Inc.).

Assay [1] relates to T-DXd-resistant NCI-N87 cells. Briefly: Proliferation assay (CellTiter Glo), T-DXd resistant NCI-N87 cells. The format is cell-based, human. The conditions noted are these: 5 days of incubation, in vitro. The protocol: as §1
For orientation: In ATP-based viability assays light output follows the ATP content of the culture.

Assay [2] concerns HER2-overexpressing human breast cancer cell line SUM190PT. Type of assay: in vivo. The protocol: The study is performed in human breast cancer cell line SUM190PT grown as subcutaneous xenografts in NMRI-Foxn1^nu mice. Day 1 was the first day, day 21 the last day of treatment and final day of analysis.
Cells are obtained and cultured as described in Example 8 (see paragraph 8.1.2).
Capecitabine can be purchased from Roche Pharma AG. Capecitabine is suspended with 0.5% Natrosol and administered intragastrally with a volume of 10 ml/kg.
Tumor volumes and side effects are monitored as described in Example 1 (see paragraph 1.1.6), except that control animals are sacrificed when the median tumor volume of the group reaches a size of approximately 540 mm^3.
(§2) The statistical evaluation of the tumor volume and the body weight is conducted on day 21 (last day of the study). Apart from this, statistical analysis was performed as described in Example 1 (see paragraph 1.1.7), with no evaluation of tumor growth after stop of treatment.

The test system of assay [3] is HER2-overexpressing human NSCLC cell line Calu-3. Put plainly: Calu-3 subcutaneous xenograft, zongertinib with trastuzumab and/or pertuzumab. The format is in vivo, CB-17/Icr-Prkdc^scid mice. To be noted: day 42, zongertinib 20 mg/kg qdx42 p.o., trastuzumab 20 mg/kg q7dx6 i.p., pertuzumab 20 mg/kg q7dx6 i.p., alone or combined. As for the experimental part:
The study is performed in human NSCLC cell line Calu-3 grown as subcutaneous xenografts in CB-17/Icr-Prkdc^scid mice. Day 1 was the first day, day 42 the last day of treatment and final day of analysis.
Calu-3 is a HER2-overexpressing human NSCLC cell line that can be obtained from ATCC (lot 614492062). Cells are cultured in T75, T175 and 5-Layer tissue culture flasks at 37° C. and 5% CO2. The medium used is EMEM (Lonza BE12-662F) supplemented with 10% FCS (Cytiva HyClone Characterized FBS, SH30084.03n), 2 mM Glutamax (Gibco 35050-038), 0.5 mM sodium pyruvate (Sigma S8636). Cultures are split once weekly with a ratio of 1:1.5-1:2.
To establish subcutaneous tumors, Calu-3 cells are harvested by centrifugation, washed and resuspended in PBS+5% FCS at 7×10^7 cells/ml. 50 μl cell suspension containing 3.5×10^6 cells is injected subcutaneously into the right flank of mice (1 site per mouse).
Mice in the control group are treated with vehicle, i.e.: • (i) 0.5% Natrosol, administered once daily for the duration of the treatment intragastrally by gavage needle with a volume of 10 ml/kg body weight; and • (ii) saline (0.9%), administered once every week intraperitoneally with a volume of 10 ml/kg.
Tumor volumes and side effects are monitored as described in Example 1 (see paragraph 1.1.6).
as §2

*1 amine or outer side, *2 acyl side, *3 side chain or, on linkers, in order; H or OH if unused. Where a SMILES comes first, the peptide text is derived from it. [ ]: non-standard residue; d: D form. The star is where a group is joined. Exatecan = CC[C@@]1(O)C(=O)OCc2c1cc1n(c2=O)Cc2c-1nc1cc(F)c(C)c3c1c2[C@@H](N*)CC3; Hexanoyl(6-maleimido) = O=C1C=CC(=O)N1CCCCCC(=O)*; NHCH2OCH2CO = O=C(COCN[*:1])[*:2]

As to `CC[C@@]1(O)C(=O)OCc2c1cc1n(c2=O)Cc2c-1nc1cc(F)c(C)c3c1c2[C@@H](NC(=O)COCNC(=O)CNC(=O)[C@H](Cc1ccccc1)NC(=O)CNC(=O)CNC(=O)CCCCCN1C(=O)C=CC1=O)CC3` [deruxtecan, reference compound] ({Hexanoyl(6-maleimido)}-GGFG[NHCH2OCH2CO]-Exatecan), the entries for the “sensitivity (dose response, cell viability)” value (in the assay with parental NCI-N87 cells; in assay [1]) were “sensitive” and “resistant”, respectively.
Take `CCCCCOC(=O)Nc1nc(=O)n([C@@H]2O[C@H](C)[C@@H](O)[C@H]2O)cc1F` [Capecitabine, capecitabine, reference compound]: the “Regressions >30%” value in assay [2] (day 21, tumors regressed/total (partial response), zongertinib 10 mg/kg qdx21 p.o., capecitabine 400 mg/kg qdx21 p.o., trastuzumab 20 mg/kg q7dx3 i.p., alone or combined) is reported as 0/8. The TGI in assay [2] (day 21, zongertinib 10 mg/kg qdx21 p.o., capecitabine 400 mg/kg qdx21 p.o., trastuzumab 20 mg/kg q7dx3 i.p., alone or combined) is on record as 106%. Further, the “effect on tumor growth (median tumor volumes over time)” value in assay [2] (zongertinib 10 mg/kg qdx21, capecitabine 400 mg/kg qdx21, trastuzumab 20 mg/kg q7dx3, alone or triple combination) is “delayed tumor growth but did not shrink tumors”.
For the molecule pertuzumab [reference compound], the “Regressions >30%” value in assay [3] (tumors regressed/total (partial response)) is 0/10. Moreover, in assay [3], the TGI was 89%.

For the origin of these results see patent US20250228858A1, “ANTI-CANCER COMBINATION THERAPY” (Boehringer Ingelheim International GmbH, priority 2023, published 2025).
